Values quoted from earlier work as cited in PMC10341550, “Beta-Secretase 1 Recruits Amyloid-Beta Precursor Protein to ROCK2 Kinase, Resulting in Erroneous Phosphorylation and Beta-Amyloid Plaque Formation” (International Journal of Molecular Sciences, 2023).

Key:
Details in all cases: cited from earlier work
[1] = system: Aβ production in an AD mouse brain
Excerpt: Alzheimer’s disease is currently the leading cause of dementia, with no effective treatment. […] Although Aβ cannot account for all features of Alzheimer’s disease, reducing Aβ production or accumulation is a major therapeutic strategy to confront the disease. The accumulation of Aβ peptides in senile plaques is the consequence of pathological processing of APP. There are two major pathways of APP processing: a non-amyloidogenic pathway invo ...

protein kinase CK2α = system: protein kinase CK2α
Excerpt: Despite decades of intensive research, there is no efficient drug to prevent or cure Alzheimer’s disease. […] During the processing of APP, its cleavage by BACE1 is the rate-limiting step [16]; therefore, the inhibition of BACE1 could be a trivial solution. The development of small molecular inhibitors against BACE1 was set back with a series of unwanted side effects. Previously, it was shown that pharmacological inhibition of ROCK2 activity diminishes sAPPβ pro ...

ROCK2 = system: ROCK2

Structure (SMILES) | Aβ production [1] | inhibition of protein kinase CK2α (in words) (protein kinase CK2α) | ROCK2 inhibition selectivity (in words) (ROCK2)
CN(C)CCOc1cc(-c2cn[nH]c2)ccc1NC(=O)C1COc2ccccc2O1 (stereo not drawn) [SR3677] | diminished the production of Aβ in an AD mouse brain |  | 
CC(C)NC(=O)COc1cccc(-c2nc(Nc3ccc4[nH]ncc4c3)c3ccccc3n2)c1 [belumosudil] |  | inhibition of the protein kinase CK2α | highly selective
